{"source": "the supplement of paper PMC10307832", "assay_in_all_cases": "relative viability (nuclei count vs DMSO), 5 days (fraction); higher = more cells survive", "key": {"RERF-LC-KJ": {"test_system": "RERF-LC-KJ", "summary_of_the_method": "(§1)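 Relative viability equals treated-well nuclei counts divided by vehicle-well nuclei counts. Counts came from 4× images of lung cancer cell lines grown in 1536-well plates for 5 days after pin-tool dosing on the day after seeding. Dosing used one drug alone or a fixed anchor-drug dose plus five library-drug doses (not always all listed) in √10 steps, and values are medians of duplicate plates.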"}, "ABC-1": {"test_system": "ABC-1", "summary_of_the_method": "as §1"}, "EBC-1": {"test_system": "EBC-1", "summary_of_the_method": "as §1"}, "NCI-H1993": {"test_system": "NCI-H1993", "summary_of_the_method": "as §1"}, "NCI-H1703": {"test_system": "NCI-H1703", "summary_of_the_method": "as §1"}, "Calu-6": {"test_system": "Calu-6", "summary_of_the_method": "as §1"}, "NCI-H1299": {"test_system": "NCI-H1299", "summary_of_the_method": "as §1"}, "IA-LM": {"test_system": "IA-LM", "summary_of_the_method": "as §1"}, "HCC-44": {"test_system": "HCC-44", "summary_of_the_method": "as §1"}, "EKVX": {"test_system": "EKVX", "summary_of_the_method": "as §1"}, "NCI-H2126": {"test_system": "NCI-H2126", "summary_of_the_method": "as §1"}, "NCI-H2085": {"test_system": "NCI-H2085", "summary_of_the_method": "as §1"}}, "data": [{"compound": "COc1cc2nccc(Oc3ccc(NC(=O)Nc4cc(C)on4)c(Cl)c3)c2cc1OC", "note": "[Tivozanib] + CC(C)C[C@H](NC(=O)[C@H](Cc1ccccc1)NC(=O)c1cnccn1)B(O)O [Bortezomib] (partner 0.002 µM)", "values": [{"measurement": "relative viability", "setting": "RERF-LC-KJ; first compound 0.005 µM", "result": 1.11}, {"measurement": "relative viability", "setting": "RERF-LC-KJ; first compound 0.01581 µM", "result": 1.06}, {"measurement": "relative viability", "setting": "RERF-LC-KJ; first compound 0.05 µM", "result": 1.11}, {"measurement": "relative viability", "setting": "RERF-LC-KJ; first compound 0.1581 µM", "result": 0.83}, {"measurement": "relative viability", "setting": "RERF-LC-KJ; first compound 0.5 µM", "result": 1.03}, {"measurement": "relative viability", "setting": "ABC-1; first compound 0.005 µM", "result": 0.315}, {"measurement": "relative viability", "setting": "ABC-1; first compound 0.01581 µM", "result": 0.3}, {"measurement": "relative viability", "setting": "ABC-1; first compound 0.05 µM", "result": 0.277}, {"measurement": "relative viability", "setting": "ABC-1; first compound 0.1581 µM", "result": 0.304}, {"measurement": "relative viability", "setting": "ABC-1; first compound 0.5 µM", "result": 0.288}, {"measurement": "relative viability", "setting": "EBC-1; first compound 0.005 µM", "result": 0.5}, {"measurement": "relative viability", "setting": "EBC-1; first compound 0.01581 µM", "result": 0.561}, {"measurement": "relative viability", "setting": "EBC-1; first compound 0.05 µM", "result": 0.624}, {"measurement": "relative viability", "setting": "EBC-1; first compound 0.1581 µM", "result": 0.511}, {"measurement": "relative viability", "setting": "EBC-1; first compound 0.5 µM", "result": 0.477}, {"measurement": "relative viability", "setting": "NCI-H1993; first compound 0.005 µM", "result": 0.981}, {"measurement": "relative viability", "setting": "NCI-H1993; first compound 0.01581 µM", "result": 1.02}, {"measurement": "relative viability", "setting": "NCI-H1993; first compound 0.05 µM", "result": 1.39}, {"measurement": "relative viability", "setting": "NCI-H1993; first compound 0.1581 µM", "result": 0.647}, {"measurement": "relative viability", "setting": "NCI-H1993; first compound 0.5 µM", "result": 1.13}, {"measurement": "relative viability", "setting": "NCI-H1703; first compound 0.005 µM", "result": 0.247}, {"measurement": "relative viability", "setting": "NCI-H1703; first compound 0.01581 µM", "result": 0.186}, {"measurement": "relative viability", "setting": "NCI-H1703; first compound 0.05 µM", "result": 0.154}, {"measurement": "relative viability", "setting": "NCI-H1703; first compound 0.1581 µM", "result": 0.167}, {"measurement": "relative viability", "setting": "NCI-H1703; first compound 0.5 µM", "result": 0.164}, {"measurement": "relative viability", "setting": "Calu-6; first compound 0.005 µM", "result": 0.904}, {"measurement": "relative viability", "setting": "Calu-6; first compound 0.01581 µM", "result": 1.08}, {"measurement": "relative viability", "setting": "Calu-6; first compound 0.05 µM", "result": 0.986}, {"measurement": "relative viability", "setting": "Calu-6; first compound 0.1581 µM", "result": 0.965}, {"measurement": "relative viability", "setting": "Calu-6; first compound 0.5 µM", "result": 0.95}, {"measurement": "relative viability", "setting": "NCI-H1299; first compound 0.005 µM", "result": 1.05}, {"measurement": "relative viability", "setting": "NCI-H1299; first compound 0.01581 µM", "result": 1.02}, {"measurement": "relative viability", "setting": "NCI-H1299; first compound 0.05 µM", "result": 1.01}, {"measurement": "relative viability", "setting": "NCI-H1299; first compound 0.1581 µM", "result": 1.06}, {"measurement": "relative viability", "setting": "NCI-H1299; first compound 0.5 µM", "result": 0.958}, {"measurement": "relative viability", "setting": "IA-LM; first compound 0.005 µM", "result": 0.716}, {"measurement": "relative viability", "setting": "IA-LM; first compound 0.01581 µM", "result": 0.812}, {"measurement": "relative viability", "setting": "IA-LM; first compound 0.05 µM", "result": 0.821}, {"measurement": "relative viability", "setting": "IA-LM; first compound 0.1581 µM", "result": 0.623}, {"measurement": "relative viability", "setting": "IA-LM; first compound 0.5 µM", "result": 0.614}, {"measurement": "relative viability", "setting": "HCC-44; first compound 0.005 µM", "result": 0.895}, {"measurement": "relative viability", "setting": "HCC-44; first compound 0.01581 µM", "result": 0.809}, {"measurement": "relative viability", "setting": "HCC-44; first compound 0.05 µM", "result": 0.92}, {"measurement": "relative viability", "setting": "HCC-44; first compound 0.1581 µM", "result": 0.864}, {"measurement": "relative viability", "setting": "HCC-44; first compound 0.5 µM", "result": 0.833}, {"measurement": "relative viability", "setting": "EKVX; first compound 0.005 µM", "result": 0.95}, {"measurement": "relative viability", "setting": "EKVX; first compound 0.01581 µM", "result": 0.924}, {"measurement": "relative viability", "setting": "EKVX; first compound 0.05 µM", "result": 1.11}, {"measurement": "relative viability", "setting": "EKVX; first compound 0.1581 µM", "result": 0.987}, {"measurement": "relative viability", "setting": "EKVX; first compound 0.5 µM", "result": 1.02}, {"measurement": "relative viability", "setting": "NCI-H2126; first compound 0.005 µM", "result": 1.1}, {"measurement": "relative viability", "setting": "NCI-H2126; first compound 0.01581 µM", "result": 1.07}, {"measurement": "relative viability", "setting": "NCI-H2126; first compound 0.05 µM", "result": 1.14}, {"measurement": "relative viability", "setting": "NCI-H2126; first compound 0.1581 µM", "result": 0.811}, {"measurement": "relative viability", "setting": "NCI-H2126; first compound 0.5 µM", "result": 1.11}, {"measurement": "relative viability", "setting": "NCI-H2085; first compound 0.005 µM", "result": 1.02}, {"measurement": "relative viability", "setting": "NCI-H2085; first compound 0.01581 µM", "result": 1.1}, {"measurement": "relative viability", "setting": "NCI-H2085; first compound 0.05 µM", "result": 1.07}, {"measurement": "relative viability", "setting": "NCI-H2085; first compound 0.1581 µM", "result": 1.04}, {"measurement": "relative viability", "setting": "NCI-H2085; first compound 0.5 µM", "result": 0.846}]}]}
